Source: patent US20260232658A1, “AZETIDINYL BENZOXAZOLE COMPOUNDS AND THEIR USE AS MER AND AXL INHIBITORS” (DONG-A ST CO., LTD., priority 2022, published 2026)
pIC50: −log10 of the molar value.

Assays:
[1] = target: T1, human MER (528-end) (Homo sapiens, UniProt Q12866); experiment: HTRF kinase activity biochemical assay, MER; conditions: recombinant kinase, 10 uM ATP, 30 minutes pre-incubation; read-out: HTRF MERTK IC50;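 note: phosphorylation of a biotin-tagged tyrosine kinase substrate detected by Eu3+-cryptate antibody and streptavidin-XL665 time-resolved fluorescence, read after 1 h at room temperature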
T1 construct: human MER (528-end); purchased Carnabio, Japan
T1 sequence (Q12866 528-999 limits assumed): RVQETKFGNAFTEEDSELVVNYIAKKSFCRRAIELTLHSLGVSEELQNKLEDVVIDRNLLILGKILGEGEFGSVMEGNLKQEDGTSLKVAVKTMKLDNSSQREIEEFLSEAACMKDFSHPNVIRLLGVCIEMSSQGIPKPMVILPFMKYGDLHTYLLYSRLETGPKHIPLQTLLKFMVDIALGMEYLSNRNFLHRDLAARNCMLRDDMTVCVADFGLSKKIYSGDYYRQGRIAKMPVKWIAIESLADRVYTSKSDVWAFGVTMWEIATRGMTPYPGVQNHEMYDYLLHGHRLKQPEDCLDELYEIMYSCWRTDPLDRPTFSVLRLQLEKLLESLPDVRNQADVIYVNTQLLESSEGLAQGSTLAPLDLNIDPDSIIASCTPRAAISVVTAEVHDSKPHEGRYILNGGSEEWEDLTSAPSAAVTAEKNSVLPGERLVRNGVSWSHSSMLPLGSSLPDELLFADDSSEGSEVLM

[2] = target: T2, TYRO3 (455-end) (Homo sapiens, UniProt Q06418); experiment: HTRF kinase activity biochemical assay, TYRO3; conditions: recombinant kinase, 10 uM ATP, 30 minutes pre-incubation; read-out: HTRF TYRO IC50;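 note: biotinylated tyrosine kinase substrate phosphorylation detected via streptavidin-XL665 and Eu3+-cryptate anti-phospho antibody time-resolved fluorescence, read after 1 h detection at room temperature, 384-well format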
T2 construct: TYRO3 (455-end); purchased SignalChem, Canada
T2 sequence (Q06418 455-890 limits assumed): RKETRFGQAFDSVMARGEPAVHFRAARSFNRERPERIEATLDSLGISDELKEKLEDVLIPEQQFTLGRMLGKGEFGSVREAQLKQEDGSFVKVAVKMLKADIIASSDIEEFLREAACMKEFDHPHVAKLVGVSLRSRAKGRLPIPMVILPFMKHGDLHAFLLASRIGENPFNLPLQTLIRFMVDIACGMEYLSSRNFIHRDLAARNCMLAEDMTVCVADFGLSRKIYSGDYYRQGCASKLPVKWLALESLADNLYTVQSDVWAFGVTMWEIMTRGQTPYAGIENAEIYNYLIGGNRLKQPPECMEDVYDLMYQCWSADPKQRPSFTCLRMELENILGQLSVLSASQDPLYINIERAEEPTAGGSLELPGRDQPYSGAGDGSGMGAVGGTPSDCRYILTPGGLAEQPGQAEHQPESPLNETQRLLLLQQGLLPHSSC

[3] = target: T3, human AXL (473-end) (Homo sapiens, UniProt P30530); experiment: HTRF kinase activity biochemical assay, AXL; conditions: recombinant kinase, 10 uM ATP, 30 minutes pre-incubation; read-out: HTRF AXL IC50;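 note: phosphorylation of a biotinylated tyrosine kinase substrate detected via Eu3+-cryptate anti-TK antibody and streptavidin-XL665, fluorescence read after a 1 h incubation at room temperature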
T3 construct: human AXL (473-end); purchased SignalChem, Canada
T3 sequence (P30530 473-894 limits assumed): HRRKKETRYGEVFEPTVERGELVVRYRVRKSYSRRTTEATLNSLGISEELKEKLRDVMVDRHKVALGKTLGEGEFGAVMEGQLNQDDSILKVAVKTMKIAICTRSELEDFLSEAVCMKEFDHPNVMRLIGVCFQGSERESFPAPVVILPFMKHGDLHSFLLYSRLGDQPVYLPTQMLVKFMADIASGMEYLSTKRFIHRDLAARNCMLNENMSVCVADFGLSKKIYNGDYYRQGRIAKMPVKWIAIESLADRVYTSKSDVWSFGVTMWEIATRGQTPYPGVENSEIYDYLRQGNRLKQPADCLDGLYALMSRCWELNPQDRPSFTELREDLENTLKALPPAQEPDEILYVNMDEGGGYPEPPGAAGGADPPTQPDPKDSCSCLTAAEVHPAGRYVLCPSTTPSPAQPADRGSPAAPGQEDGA

pIC50 [1]	pIC50 [2]	pIC50 [3]	SMILES
7.74	5.49	7.37	CCOC(=O)C(C)(C)c1ccc2nc(N3CC(c4cnc(Nc5cnn(C)c5)c(C(N)=O)n4)C3)oc2c1 [Example 111F, ethyl 2-[2-(3-{6-carbamoyl-5-[(1-methyl-1H-pyrazol-4-yl)amino]pyrazin-2-yl}azetidin-1-yl)-1,3-benzoxazol-6-yl]-2-methylpropanoate]
> 9.00	8.10	> 9.00	Cn1cc(Nc2ncc(C3CN(c4nc5ccc(OCC6CC6)cc5o4)C3)nc2C(N)=O)cn1 [Example 23, 6-{1-[6-(cyclopropylmethoxy)-1,3-benzoxazol-2-yl]azetidin-3-yl}-3-[(1-methyl-1H-pyrazol-4-yl)amino]pyrazine-2-carboxamide]
> 9.00	7.08	8.70	CCc1ccc2nc(N3CC(c4cnc(Nc5cnn(C)c5)c(C(N)=O)n4)C3)oc2c1 [Example 5, 6-[1-(6-ethyl-1,3-benzoxazol-2-yl)azetidin-3-yl]-3-[(1-methyl-1H-pyrazol-4-yl)amino]pyrazine-2-carboxamide]
8.52	6.21	8.05	Cn1cc(Nc2ncc(C3CN(c4nc5ccc(CCC6(O)COC6)cc5o4)C3)nc2C(N)=O)cn1 [Example 45, 6-(1-{6-[2-(3-hydroxyoxetan-3-yl)ethyl]-1,3-benzoxazol-2-yl}azetidin-3-yl)-3-[(1-methyl-1H-pyrazol-4-yl)amino]pyrazine-2-carboxamide]
> 9.00	7.03	8.52	CCOC(=O)COc1ccc2nc(N3CC(c4cnc(Nc5cnn(C)c5)c(C(N)=O)n4)C3)oc2c1 [Example 26, ethyl {[2-(3-{6-carbamoyl-5-[(1-methyl-1H-pyrazol-4-yl)amino]pyrazin-2-yl}azetidin-1-yl)-1,3-benzoxazol-6-yl]oxy}acetate]
8.10	5.83	7.92	CCOC(C)(C)c1ccc2nc(N3CC(c4cnc(Nc5cnn(C)c5)c(C(N)=O)n4)C3)oc2c1 [Example 101, 6-{1-[6-(2-ethoxypropan-2-yl)-1,3-benzoxazol-2-yl]azetidin-3-yl}-3-[(1-methyl-1H-pyrazol-4-yl)amino]pyrazine-2-carboxamide]
7.96	5.37	7.80	Cn1cc(Nc2ncc(C3CN(c4nc5ccc(CCC(=O)N6CCCC6)cc5o4)C3)nc2C(N)=O)cn1 [Example 63, 3-[(1-methyl-1H-pyrazol-4-yl)amino]-6-(1-{6-[3-oxo-3-(pyrrolidin-1-yl)propyl]-1,3-benzoxazol-2-yl}azetidin-3-yl)pyrazine-2-carboxamide]
> 9.00	7.19	8.52	Cn1cc(Nc2ncc(C3CN(c4nc5ccc(C(=O)N6CCC[C@@H]6C(C)(C)O)cc5o4)C3)nc2C(N)=O)cn1 [Example 75, 6-(1-{6-[(2R)-2-(2-hydroxypropan-2-yl)pyrrolidine-1-carbonyl]-1,3-benzoxazol-2-yl}azetidin-3-yl)-3-[(1-methyl-1H-pyrazol-4-yl)amino]pyrazine-2-carboxamide]
8.70	5.43	8.40	COC[C@H]1CCCN1C(=O)Cc1ccc2nc(N3CC(c4cnc(Nc5cnn(C)c5)c(C(N)=O)n4)C3)oc2c1 [Example 71, 6-[1-(6-{2-[(2R)-2-(methoxymethyl)pyrrolidin-1-yl]-2-oxoethyl}-1,3-benzoxazol-2-yl)azetidin-3-yl]-3-[(1-methyl-1H-pyrazol-4-yl)amino]pyrazine-2-carboxamide]
8.52	6.37	8.00	CC1(C)OCC(Cn2cc(Nc3ncc(C4CN(c5nc6ccc(F)cc6o5)C4)nc3C(N)=O)cn2)O1 (stereo not drawn) [Example 36D, 3-({1-[(2,2-dimethyl-1,3-dioxolan-4-yl)methyl]-1H-pyrazol-4-yl}amino)-6-[1-(6-fluoro-1,3-benzoxazol-2-yl)azetidin-3-yl]pyrazine-2-carboxamide]
6.82	–	6.68	Cn1cc(Nc2ncc(C3CN(c4nc5ccc(OCC(=O)O)cc5o4)C3)nc2C(N)=O)cn1 [Example 73A, {[2-(3-f{6-carbamoyl-5-[(1-methyl-1H-pyrazol-4-yl)amino]pyrazin-2-yl}azetidin-1-yl)-1,3-benzoxazol-6-yl]oxy}acetic acid]
> 9.00	7.14	8.98	Cn1cc(Nc2ncc(C3CN(c4nc5ccc(C6=CCCCC6)cc5o4)C3)nc2C(N)=O)cn1 [Example 6, 6-{1-[6-(cyclohex-1-en-1-yl)-1,3-benzoxazol-2-yl]azetidin-3-yl}-3-[(1-methyl-1H-pyrazol-4-yl)amino]pyrazine-2-carboxamide]
9.00	6.66	8.40	Cn1cc(Nc2ncc(C3CN(c4nc5ccc(C(F)(F)F)cc5o4)C3)nc2C(N)=O)cn1 [Example 12, 3-[(1-methyl-1H-pyrazol-4-yl)amino]-6-{1-[6-(trifluoromethyl)-1,3-benzoxazol-2-yl]azetidin-3-yl}pyrazine-2-carboxamide]
7.46	5.45	7.02	Cn1cc(Nc2ncc(C3CN(c4nc5ccc(CC(=O)O)cc5o4)C3)nc2C(N)=O)cn1 [Example 65C, [2-(3-{6-carbamoyl-5-[(1-methyl-1H-pyrazol-4-yl)amino]pyrazin-2-yl}azetidin-1-yl)-1,3-benzoxazol-6-yl]acetic acid]
> 9.00	6.62	8.70	CN1CCCC(Oc2ccc3nc(N4CC(c5cnc(Nc6cnn(C)c6)c(C(N)=O)n5)C4)oc3c2)C1=O (stereo not drawn) [Example 76, 6-(1-{6-[(1-methyl-2-oxopiperidin-3-yl)oxy]-1,3-benzoxazol-2-yl}azetidin-3-yl)-3-[(1-methyl-1H-pyrazol-4-yl)amino]pyrazine-2-carboxamide]
8.70	6.24	8.10	Cn1cc(Nc2ncc(C3CN(c4nc5ccc(O[C@H]6CCOC6)cc5o4)C3)nc2C(N)=O)cn1 [Example 69, 3-[(1-methyl-1H-pyrazol-4-yl)amino]-6-[1-(6-{[(3S)-oxolan-3-yl]oxy}-1,3-benzoxazol-2-yl)azetidin-3-yl]pyrazine-2-carboxamide]
7.47	5.57	7.22	C[Si](C)(C)CCOCn1cc(Nc2ncc(C3CN(c4nc5ccc(O)cc5o4)C3)nc2C(N)=O)cn1 [Example 0, 6-[1-(6-hydroxy-1,3-benzoxazol-2-yl)azetidin-3-yl]-3-[(1-{[2-(trimethylsilyl)ethoxy]methyl}-1H-pyrazol-4-yl)amino]pyrazine-2-carboxamide]
–	6.62	8.70	Cn1cc(Nc2ncc(C3CN(c4nc5ccc(/C=C/C(C)(C)O)cc5o4)C3)nc2C(N)=O)cn1 [Example 17, 6-(1-{6-[(1E)-3-hydroxy-3-methylbut-1-en-1-yl]-1,3-benzoxazol-2-yl}azetidin-3-yl)-3-[(1-methyl-1H-pyrazol-4-yl)amino]pyrazine-2-carboxamide]
7.54	6.01	–	Cn1cc(Nc2ncc(C3CN(c4nc5ccc(O)cc5o4)C3)nc2C(N)=O)cn1 [Example 20, 6-[I1-(6-hydroxy-1,3-benzoxazol-2-yl)azetidin-3-yl]-3-[(1-methyl-1H-pyrazol-4-yl)amino]pyrazine-2-carboxamide]

SMILES	pIC50 [1]	pIC50 [2]	pIC50 [3]
CC(C)(O)CCOc1ccc2nc(N3CC(c4cnc(Nc5cnn(CC(C)(C)O)c5)c(C(N)=O)n4)C3)oc2c1 [Example 96, 6-{1-[6-(3-hydroxy-3-methylbutoxy)-1,3-benzoxazol-2-yl]azetidin-3-yl}-3-{[1-(2-hydroxy-2-methylpropyl)-1H-pyrazol-4-yl]amino}pyrazine-2-carboxamide]	8.52	5.79	7.92
